In patent publication US9156829B2, “Cycloalkyl and heterocycloalkyl compounds as orexin receptor antagonists” (Takeda Pharmaceutical Company Limited, priority 2014, dated 2015):

What was measured:
human orexin receptor 2 = human orexin receptor 2 (Homo sapiens (Human), UniProt O43614); assay: Orexin antagonist activity, intracellular calcium FLIPR assay, RBL-2H3 cells expressing human orexin receptor 2; type: cell-based; details: RBL-2H3 cells stably expressing human orexin receptor 2; orexin-A at approx. 80% maximal response; compound added 15 minutes before; read-out: Human Orexin2R IC50
human orexin receptor 1 = human orexin receptor 1 (Homo sapiens (Human), UniProt O43613); assay: Orexin antagonist activity, intracellular calcium FLIPR assay, RBL-2H3 cells expressing human orexin receptor 1; type: cell-based; details: RBL-2H3 cells stably expressing human orexin receptor 1; orexin-A at approx. 80% maximal response; compound added 15 minutes before; read-out: Human Orexin1R IC50
Sequence of human orexin receptor 1 (O43613 whole entry): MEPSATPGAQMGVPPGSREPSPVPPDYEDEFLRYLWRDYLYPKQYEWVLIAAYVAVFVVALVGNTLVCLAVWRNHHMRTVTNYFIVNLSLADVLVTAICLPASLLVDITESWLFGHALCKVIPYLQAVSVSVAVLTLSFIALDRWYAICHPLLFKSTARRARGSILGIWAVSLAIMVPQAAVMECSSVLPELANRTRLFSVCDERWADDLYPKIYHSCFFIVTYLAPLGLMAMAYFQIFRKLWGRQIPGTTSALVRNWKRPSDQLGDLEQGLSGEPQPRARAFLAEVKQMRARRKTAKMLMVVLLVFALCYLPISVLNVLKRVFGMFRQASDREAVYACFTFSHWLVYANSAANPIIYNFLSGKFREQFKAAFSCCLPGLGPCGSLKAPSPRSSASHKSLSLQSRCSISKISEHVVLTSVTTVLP

Sequence of human orexin receptor 2 (O43614 whole entry): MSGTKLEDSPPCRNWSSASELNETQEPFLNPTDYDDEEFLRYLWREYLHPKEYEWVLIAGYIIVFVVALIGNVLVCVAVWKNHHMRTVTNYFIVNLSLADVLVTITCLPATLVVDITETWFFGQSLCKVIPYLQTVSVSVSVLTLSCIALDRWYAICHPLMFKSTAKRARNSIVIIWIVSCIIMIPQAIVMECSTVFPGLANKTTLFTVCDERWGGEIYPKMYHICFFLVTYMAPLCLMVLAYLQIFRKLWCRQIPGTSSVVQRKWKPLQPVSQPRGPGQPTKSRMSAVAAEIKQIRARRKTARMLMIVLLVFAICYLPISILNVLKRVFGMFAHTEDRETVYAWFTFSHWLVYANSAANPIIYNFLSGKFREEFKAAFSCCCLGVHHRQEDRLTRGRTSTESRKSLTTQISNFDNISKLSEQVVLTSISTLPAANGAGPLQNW

| Structure (SMILES) | IC50 (human orexin receptor 2) | IC50 (human orexin receptor 1) |
| --- | --- | --- |
| O=C(N[C@H]1CCC[C@@H]1Oc1cc(C(F)(F)F)ccn1)c1ccccc1-n1nccn1 [Example 20, 2-(2H-1,2,3-Triazol-2-yl)-N-[(1S,2S)-2-{[4-(trifluoromethyl)pyridin-2-yl]oxy}cyclopentyl]benzamide] | > 10000 nM | 875 nM |
| COc1cccc(OC)c1C(=O)N[C@H]1CCC[C@@H]1Oc1cc(C(F)(F)F)ccn1 [Example 21, 2,6-Dimethoxy-N-[(1S,2S)-2-{[4-(trifluoromethyl)pyridin-2-yl]oxy}cyclopentyl]benzamide] | 6420 nM | 576 nM |
| O=C(NC1CCCC1Cc1cc(C(F)(F)F)ccn1)c1ccccc1-n1nccn1 (stereo not shown) [Example 22, 2-(2H-1,2,3-Triazol-2-yl)-N-(2-{[4-(trifluoromethyl)pyridin-2-yl]methyl}cyclopentyl)benzamide] | 6160 nM | 665 nM |
| O=C(NC1CCCC1Cc1ccc(C(F)(F)F)cn1)c1ccccc1-n1nccn1 (stereo not shown) [Example 24, 2-(2H-1,2,3-Triazol-2-yl)-N-(2-{[5-(trifluoromethyl)pyridin-2-yl]methyl}cyclopentyl)benzamide] | > 10000 nM | 766 nM |
| Cc1ccc(-n2nccn2)c(C(=O)NC2CCCC2Cc2ccc(C(F)(F)F)cn2)c1 (stereo not shown) [Example 26, 5-Methyl-2-(2H-1,2,3-triazol-2-yl)-N-(2-{[5-(trifluoromethyl)pyridin-2-yl]methyl}cyclopentyl)benzamide] | > 10000 nM | 622 nM |
| COc1cccc(OC)c1C(=O)N[C@H]1CCC[C@@H]1Nc1cccc(C(F)(F)F)n1 [Example 27, 2,6-Dimethoxy-N-[(1S,2S)-2-{[6-(trifluoromethyl)pyridin-2-yl]amino}cyclopentyl]benzamide] | 2000 nM | 726 nM |
| O=C(N[C@H]1CCC[C@@H]1Nc1cnc(C(F)(F)F)cn1)c1ncccc1Br [Example 28, 3-Bromo-N-[(1S,2S)-2-{[5-(trifluoromethyl)pyrazin-2-yl]amino}cyclopentyl]pyridine-2-carboxamide] | > 10000 nM | 776 nM |
| CCOc1ccc(C)cc1C(=O)N[C@H]1CCC[C@@H]1Nc1cnc(C(F)(F)F)cn1 [Example 29, 2-Ethoxy-5-methyl-N-[(1S,2S)-2-{[5-(trifluoromethyl)pyrazin-2-yl]amino}cyclopentyl]benzamide] | > 10000 nM | 279 nM |
| CCOc1ccc(C)nc1C(=O)N[C@H]1CCC[C@@H]1Nc1cnc(C(F)(F)F)cn1 [Example 30, 3-Ethoxy-6-methyl-N-[(1S,2S)-2-{[5-(trifluoromethyl)pyrazin-2-yl]amino}cyclopentyl]pyridine-2-carboxamide] | > 10000 nM | 370 nM |
| COc1cccc(OC)c1C(=O)N[C@H]1CCC[C@@H]1Nc1cnc(C(F)(F)F)cn1 [Example 34, 2,6-Dimethoxy-N-[(1S,2S)-2-{[5-(trifluoromethyl)pyrazin-2-yl]amino}cyclopentyl]benzamide] | > 10000 nM | 523 nM |
| Cc1nnc(-c2ccccc2C(=O)N[C@H]2CCC[C@@H]2Nc2cnc(C(F)(F)F)cn2)o1 [Example 44, 2-(5-Methyl-1,3,4-oxadiazol-2-yl)-N-[(1S,2S)-2-{[5-(trifluoromethyl)pyrazin-2-yl]amino}cyclopentyl]benzamide] | > 10000 nM | 199 nM |
| COc1cccc(-n2cccn2)c1C(=O)N[C@H]1CCC[C@@H]1Nc1cnc(C(F)(F)F)cn1 [Example 50, 2-Methoxy-6-(1H-pyrazol-1-yl)-N-[(1S,2S)-2-{[5-(trifluoromethyl)pyrazin-2-yl]amino}cyclopentyl]benzamide] | > 10000 nM | 80 nM |
| O=C(N[C@H]1CCC[C@@H]1Nc1cnc(C(F)(F)F)cn1)c1ncccc1N1CCCCC1 [Example 51, 3-(Piperidin-1-yl)-N-[(1S,2S)-2-{[5-(trifluoromethyl)pyrazin-2-yl]amino}cyclopentyl]pyridine-2-carboxamide] | > 10000 nM | 301 nM |

Other lines, results leading:

| IC50 (human orexin receptor 2) | IC50 (human orexin receptor 1) | Structure (SMILES) |
| --- | --- | --- |
| > 10000 nM | 57 nM | O=C(N[C@H]1CCC[C@@H]1Nc1ncc(C(F)(F)F)cn1)c1ccccc1-n1nccn1 [Example 18, 2-(2H-1,2,3-Triazol-2-yl)-N-[(1S,2S)-2-{[5-(trifluoromethyl)pyrimidin-2-yl]amino}cyclopentyl]benzamide] |
| 6100 nM | 757 nM | O=C(N[C@H]1CCC[C@H]1Oc1cnc(C(F)(F)F)cn1)c1ccccc1-n1nccn1 [Example 19, 2-(2H-1,2,3-Triazol-2-yl)-N-[(1S,2R)-2-{[5-(trifluoromethyl)pyrazin-2-yl]oxy}cyclopentyl]benzamide] |
| > 10000 nM | 122 nM | O=C(N[C@H]1CCC[C@@H]1Nc1cnc(C(F)(F)F)cn1)c1ccccc1-n1cccn1 [Example 31, 2-(1H-Pyrazol-1-yl)-N-[(1S,2S)-2-{[5-(trifluoromethyl)pyrazin-2-yl]amino}cyclopentyl]benzamide] |
| > 10000 nM | 32 nM | O=C(N[C@H]1CCC[C@@H]1Nc1cnc(C(F)(F)F)cn1)c1c(F)cccc1-n1nccn1 [Example 32, 2-Fluoro-6-(2H-1,2,3-triazol-2-yl)-N-[(1S,2S)-2-{[5-(trifluoromethyl)pyrazin-2-yl]amino}cyclopentyl]benzamide] |
| > 10000 nM | 890 nM | O=C(N[C@H]1CCC[C@@H]1Nc1cnc(C(F)(F)F)cn1)c1c(F)cccc1F [Example 33, 2,6-Difluoro-N-[(1S,2S)-2-{[5-(trifluoromethyl)pyrazin-2-yl]amino}cyclopentyl]benzamide] |
| > 10000 nM | 693 nM | O=C(N[C@H]1CCC[C@@H]1Nc1cnc(C(F)(F)F)cn1)c1ccccc1-n1ccnn1 [Example 35, 2-(1H-1,2,3-Triazol-1-yl)-N-[(1S,2S)-2-{[5-(trifluoromethyl)pyrazin-2-yl]amino}cyclopentyl]benzamide] |
| > 10000 nM | 207 nM | O=C(N[C@H]1CCC[C@@H]1Nc1cnc(C(F)(F)F)cn1)c1cc(F)ccc1-n1nccn1 [Example 36, 5-Fluoro-2-(2H-1,2,3-triazol-2-yl)-N-[(1S,2S)-2-{[5-(trifluoromethyl)pyrazin-2-yl]amino}cyclopentyl]benzamide] |
| > 10000 nM | 340 nM | COc1ccc(C)cc1C(=O)N[C@H]1CCC[C@@H]1Nc1cnc(C(F)(F)F)cn1 [Example 37, 2-Methoxy-5-methyl-N-[(1S,2S)-2-{[5-(trifluoromethyl)pyrazin-2-yl]amino}cyclopentyl]benzamide] |
| > 10000 nM | 49 nM | O=C(N[C@H]1CCC[C@@H]1Nc1cnc(C(F)(F)F)cn1)c1ccccc1-c1ncccn1 [Example 38, 2-(Pyrimidin-2-yl)-N-[(1S,2S)-2-{[5-(trifluoromethyl)pyrazin-2-yl]amino}cyclopentyl]benzamide] |
| > 10000 nM | 81 nM | O=C(N[C@H]1CCC[C@@H]1Nc1cnc(C(F)(F)F)cn1)c1cc(F)ccc1-c1ncccn1 [Example 39, 5-Fluoro-2-(pyrimidin-2-yl)-N-[(1S,2S)-2-{[5-(trifluoromethyl)pyrazin-2-yl]amino}cyclopentyl]benzamide] |
| > 10000 nM | 35 nM | O=C(N[C@H]1CCC[C@@H]1Nc1cnc(C(F)(F)F)cn1)c1c(Cl)cccc1-n1nccn1 [Example 40, 2-Chloro-6-(2H-1,2,3-triazol-2-yl)-N-[(1S,2S)-2-{[5-(trifluoromethyl)pyrazin-2-yl]amino}cyclopentyl]benzamide] |
| > 10000 nM | 644 nM | O=C(N[C@H]1CCC[C@@H]1Nc1cnc(C(F)(F)F)cn1)c1cc(F)ccc1-n1ccnn1 [Example 41, 5-Fluoro-2-(1H-1,2,3-triazol-1-yl)-N-[(1S,2S)-2-{[5-(trifluoromethyl)pyrazin-2-yl]amino}cyclopentyl]benzamide] |
| > 10000 nM | 261 nM | Cc1ccc(-n2ccnn2)c(C(=O)N[C@H]2CCC[C@@H]2Nc2cnc(C(F)(F)F)cn2)c1 [Example 42, 5-Methyl-2-(1H-1,2,3-triazol-1-yl)-N-[(1S,2S)-2-{[5-(trifluoromethyl)pyrazin-2-yl]amino}cyclopentyl]benzamide] |
| > 10000 nM | 289 nM | O=C(N[C@H]1CCC[C@@H]1Nc1cnc(C(F)(F)F)cn1)c1ncccc1-n1cccn1 [Example 43, 3-(1H-Pyrazol-1-yl)-N-[(1S,2S)-2-{[5-(trifluoromethyl)pyrazin-2-yl]amino}cyclopentyl]pyridine-2-carboxamide] |
| > 10000 nM | 241 nM | O=C(N[C@H]1CCC[C@@H]1Nc1cnc(C(F)(F)F)cn1)c1cc(C(F)(F)F)ccc1-n1nccn1 [Example 45, 2-(2H-1,2,3-Triazol-2-yl)-5-(trifluoromethyl)-N-[(1S,2S)-2-{[5-(trifluoromethyl)pyrazin-2-yl]amino}cyclopentyl]benzamide] |
| > 10000 nM | 172 nM | O=C(N[C@H]1CCC[C@@H]1Nc1cnc(C(F)(F)F)cn1)c1c(F)cccc1-n1cccn1 [Example 46, 2-Fluoro-6-(1H-pyrazol-1-yl)-N-[(1S,2S)-2-{[5-(trifluoromethyl)pyrazin-2-yl]amino}cyclopentyl]benzamide] |
| > 10000 nM | 445 nM | O=C(N[C@H]1CCC[C@@H]1Nc1cnc(C(F)(F)F)cn1)c1cc(F)ccc1-n1cccn1 [Example 47, 5-Fluoro-2-(1H-pyrazol-1-yl)-N-[(1S,2S)-2-{[5-(trifluoromethyl)pyrazin-2-yl]amino}cyclopentyl]benzamide] |
| > 10000 nM | 88 nM | Cc1ccc(-n2cccn2)c(C(=O)N[C@H]2CCC[C@@H]2Nc2cnc(C(F)(F)F)cn2)c1 [Example 48, 5-Methyl-2-(1H-pyrazol-1-yl)-N-[(1S,2S)-2-{[5-(trifluoromethyl)pyrazin-2-yl]amino}cyclopentyl]benzamide] |
| > 10000 nM | 69 nM | O=C(N[C@H]1CCC[C@@H]1Nc1cnc(C(F)(F)F)cn1)c1cc(Cl)ccc1-n1nccn1 [Example 52, 5-Chloro-2-(2H-1,2,3-triazol-2-yl)-N-[(1S,2S)-2-{[5-(trifluoromethyl)pyrazin-2-yl]amino}cyclopentyl]benzamide] |
